The values that follow come from patent EP0452101B1, “Spiro bridged and unbridged heterocyclic compounds” (ISRAEL INSTITUTE FOR BIOLOGICAL RESEARCH, priority 1990, dated 1991).

SMILES strings stand for the structures.

The term inhibition denotes the relative decrease from the control value, in per cent.

A short description of data set [1]: Chemical stability (thermal, aqueous solution). The class given is physicochemical. Conditions: free base, monitored with 1H-NMR. The source says: Most of these compounds are relatively stable. […] Its chemical behaviour resembles that of known 2-oxazoline derivatives. […] The formation of the decomposition products can be monitored with ^1H-NMR by inspection at two regions δ 3.3-3.5 (appearance of two doublets) and 1.9-2.0 ppm (appearance of two additional singlets).
The expected decomposition pattern (when e.g., X is O and Y is N) involves opening of the oxazoline ring to form both amide and ester as shown in Scheme E, in which the quinuclidine-derived compounds are depicted illustratively. The formation of two new singlets at δ 1.9-2.0 ppm as expected for R = Me of these two structures are in agreement with this supposition. [drawing 32]
Ring opening is much faster in the presence of dilute hydrochloric acid. […] The tendency to decomposition of such salts complicates the optical separation of compounds such as AF125 and AF123. However, this problem can be overcome by using the method described for the optical separation of the enantiomers of AF125, or alternatively the amino-alcohols such as 3-aminomethylquinuclidin-3-ol can be resolved and the separated enantiomers can then be cyclized using an ester or imidate as already described. In yet another alternative the N-acyl derivatives of (e.g.) 3-aminomethylquinuclidin-3-ol can be resolved and the separated enantiomers can then be cyclized per se as shown in Scheme K: [drawing 33] […]

Data set [2] has as its target T1, M2 muscarinic receptors (Rattus norvegicus, UniProt P10980).
T1 construct: displacing from rat brain homogenates, cerebellum or frontal cortex; from tissue; host or cells: rat cerebellum homogenates
T1 sequence (P10980 1-466): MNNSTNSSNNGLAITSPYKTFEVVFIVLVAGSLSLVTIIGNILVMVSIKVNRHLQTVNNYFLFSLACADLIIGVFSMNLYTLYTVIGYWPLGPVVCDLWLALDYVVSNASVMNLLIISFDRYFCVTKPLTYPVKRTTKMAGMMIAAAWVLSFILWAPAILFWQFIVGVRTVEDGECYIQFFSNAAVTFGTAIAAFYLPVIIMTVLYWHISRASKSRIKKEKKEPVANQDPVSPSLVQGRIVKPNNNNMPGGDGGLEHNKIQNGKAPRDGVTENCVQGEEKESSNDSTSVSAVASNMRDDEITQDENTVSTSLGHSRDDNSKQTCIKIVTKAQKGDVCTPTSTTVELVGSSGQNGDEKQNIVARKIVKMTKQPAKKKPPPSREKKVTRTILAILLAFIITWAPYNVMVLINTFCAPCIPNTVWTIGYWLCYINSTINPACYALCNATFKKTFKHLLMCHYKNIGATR
As to the kind of experiment: Displacement of 3H-QNB from rat cerebellum, 50 mM phosphate buffer. It is filed as binding. Conditions: cerebellum.

For data set [3], the system named is Male white mice of the CD-1 strain. In words: Pharmacodynamic profile and general toxicity, Part B (signs, mortality, LD50). The class given is in vivo. Conditions: Table 10. The source says: Male white mice of the CD-1 strain (Charles River, UK), within the body weight range of 18-26 g, were used throughout this study, carried out on AF123, AF125 and AF125(N).
Furthermore, these initial trials clearly established that the major signs of reactions to treatment consisted primarily of signs characteristic for potential cholinomimetic activity of the test material, such as tremors, salivation, lacrimation, diarrhea, analgesia, hypothermia and vasodilation. […]

Data set [4] addresses T2, M1 muscarinic receptor (Rattus norvegicus, UniProt P08482).
T2 sequence (P08482 1-460): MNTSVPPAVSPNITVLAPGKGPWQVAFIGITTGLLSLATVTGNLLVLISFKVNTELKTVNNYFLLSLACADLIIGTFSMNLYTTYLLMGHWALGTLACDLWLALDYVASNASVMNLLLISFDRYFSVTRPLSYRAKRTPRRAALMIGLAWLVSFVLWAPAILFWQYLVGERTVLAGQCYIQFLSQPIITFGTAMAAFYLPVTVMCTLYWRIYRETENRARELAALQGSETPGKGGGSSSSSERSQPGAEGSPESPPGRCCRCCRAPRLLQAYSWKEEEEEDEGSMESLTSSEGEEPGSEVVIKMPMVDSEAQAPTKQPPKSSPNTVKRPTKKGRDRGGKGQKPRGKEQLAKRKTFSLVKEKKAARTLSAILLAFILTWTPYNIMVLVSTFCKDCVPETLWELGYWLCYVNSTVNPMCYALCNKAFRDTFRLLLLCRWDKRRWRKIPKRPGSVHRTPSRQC
As to the kind of experiment: Displacement of 3H-PZ from rat cerebral cortex, 10 mM phosphate buffer. It is filed as binding. Also noted: from tissue; host or cells: rat cerebral cortex homogenates. The conditions noted are these: for % H / Ki: cortex, Table 4; for Ki: read-out: 3H-PZ-Binding KH (a). (In general: Loss of bound radioactivity is the signal in a displacement assay; it reports binding, not function.)

The target of data set [5] is m3 receptors (Rattus norvegicus, UniProt P08483). As to the kind of experiment: PI hydrolysis in CHO cells transfected with m3 receptors. The class given is cell-based. Conditions: CHO m3; tested at 1mM. The procedure:
(§1) The new compounds AF150, AF151, AF150(S) and AF125 were assayed for their ability to stimulate PI in CHO cells transfected with m1 and m3 receptors, respectively (Buck and Fraser, loc cit), and in cultured human neuroblastoma cells, line SK-N-SH, which express mainly the m3 subtype, but not the m1 subtype (Pinkas-Kramarski et al, Neurosci. Lett. 188: 335-340, 1990; Luthin et al Mol. Pharmacol. 34: 327-333, 1988). These compounds were also assayed on cultured PC12 cells which express mainly m4 subtype receptors and are coupled to inhibition of AC activity (Pinkas-Kramarski et al, loc cit).
(§2) Stimulation of PI breakdown was assayed using the method described by Stein et al (EMBO J. 7: 3031-3035, 1988), and modulation of AC activity was assayed by the method of Stein et al, loc cit and Pinkas-Kramarski et al (FEBS Lett., 239: 174-178, 1988). […]

Data set [6] concerns the target T2, M1 muscarinic receptor. In words: Displacement of 3H-QNB from rat cerebral cortex, 50 mM phosphate buffer. The class given is binding. Conditions: cortex, Table 5.
Data set [7] has as its system CA1 neurons in the hippocampal slice. As to the kind of experiment: Electrophysiological evaluation in rat hippocampal slices. Here is the method:
In general terms the effects of microdrops of AF150, ACh and PZ were applied to rat hippocampal cells recorded intracellularly. The exact concentrations of the drug at the receptor sites are not known, using this method. However, this method has an advantage over the perfusion method, in that it gives a more correct picture from the electrophysiological point of view (Segal, loc cit).
Intracellular responses to AF150 of CA1 neurons in the hippocampal slice were recorded, using the method of Segal. Small hyperpolarizing current pulses (current traces not shown) were alternated with stimulation of the Schaffer-commissural afferents producing postsynaptic potentials.

The test system of data set [8] is muscarinic receptors. As to the kind of experiment: (-)3H-QNB binding to rat cerebral cortex homogenates with and without Cu++ treatment.
Data set [9] has as its target T3, m3 subtype (SK-N-SH cells) (Homo sapiens, UniProt P20309).
T3 construct: endogenous in cells; host or cells: SK-N-SH human neuroblastoma cells
In words: PI hydrolysis in SK-N-SH neuroblastoma cells. The class given is cell-based. Here is the method:
as §1, §2

Data set [10] concerns the target T4, m1 receptors (Rattus norvegicus, UniProt P08482).
T4 construct: expressed in transfected cells; host or cells: CHO cells
T4 sequence (P08482 1-460): T2 sequence (P08482 1-460)
As to the kind of experiment: PI hydrolysis in CHO cells transfected with m1 receptors. The class given is cell-based.

In data set [11] the target is T5, m4 subtype receptors (PC12 cells) (Rattus norvegicus, UniProt P08485).
T5 construct: endogenous in cells; host or cells: PC12 cells
T5 sequence (P08485 1-478): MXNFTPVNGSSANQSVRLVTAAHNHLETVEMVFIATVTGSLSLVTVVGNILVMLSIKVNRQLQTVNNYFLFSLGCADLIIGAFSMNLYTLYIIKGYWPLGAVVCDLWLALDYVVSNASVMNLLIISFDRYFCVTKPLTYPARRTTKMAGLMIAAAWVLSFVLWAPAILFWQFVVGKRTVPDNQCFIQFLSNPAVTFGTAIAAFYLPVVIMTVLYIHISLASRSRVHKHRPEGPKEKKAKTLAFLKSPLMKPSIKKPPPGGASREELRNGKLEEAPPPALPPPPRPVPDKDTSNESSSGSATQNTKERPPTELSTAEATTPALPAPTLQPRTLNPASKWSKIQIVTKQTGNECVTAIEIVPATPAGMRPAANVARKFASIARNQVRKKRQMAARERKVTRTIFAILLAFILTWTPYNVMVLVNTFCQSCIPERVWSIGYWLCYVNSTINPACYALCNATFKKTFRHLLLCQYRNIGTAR
As to the kind of experiment: Inhibition of adenylate cyclase activity in PC12 cells. The class given is cell-based. Here is the method:
as §1, §2

In data set [12] the target is T2, M1 muscarinic receptor. As to the kind of experiment: Displacement of 3H-PZ from cortical binding sites, Tris/Mn buffer, with and without GppNHp. Also noted: from tissue; host or cells: rat cerebral cortex homogenates. From the text: The binding of agonists to M1 muscarinic receptors and the effect of guanylyl imidophosphate (GppNHp). Agonists are known to be coupled with guanine nucleotide binding proteins (G proteins).
Non-hydrolyzable guanine nucleotides such as GppNHp dissociate the G protein from the receptor and decrease the affinity of the receptor for agonists but not for antagonists. […] Molec.
Under these conditions agonists of high efficacy ("full agonists") bind directly to the M1 receptor subtype with two affinities. […] The ratio of low and high affinities (KL/KH) of the M1 receptor may predict the relative efficacies of agonists to activate putative M1 receptor-mediated second messenger systems.
KH, KL, %H and %L are the apparent inhibition constants of the tested ligands for the high and low affinity sites, respectively. G is GppNHp (guanylyl imidodiphosphate), and was used in 0.1 mM concentration. Displacement of ^3H-PZ from cortical binding sites was performed in Tris/Mn buffer (pH 7.4) for one hour at 25°C; the buffer included 1 mM EDTA and 2mM Mn^++ ions. […] The binding data were analyzed using a GraphPAD program and were fitted to one or two components. Values are means from 1-3 experiments carried out in triplicates.

[13] abbreviates: 400 mg/kg p.os, animals affected/treated.

T3 sequence (P20309 whole entry): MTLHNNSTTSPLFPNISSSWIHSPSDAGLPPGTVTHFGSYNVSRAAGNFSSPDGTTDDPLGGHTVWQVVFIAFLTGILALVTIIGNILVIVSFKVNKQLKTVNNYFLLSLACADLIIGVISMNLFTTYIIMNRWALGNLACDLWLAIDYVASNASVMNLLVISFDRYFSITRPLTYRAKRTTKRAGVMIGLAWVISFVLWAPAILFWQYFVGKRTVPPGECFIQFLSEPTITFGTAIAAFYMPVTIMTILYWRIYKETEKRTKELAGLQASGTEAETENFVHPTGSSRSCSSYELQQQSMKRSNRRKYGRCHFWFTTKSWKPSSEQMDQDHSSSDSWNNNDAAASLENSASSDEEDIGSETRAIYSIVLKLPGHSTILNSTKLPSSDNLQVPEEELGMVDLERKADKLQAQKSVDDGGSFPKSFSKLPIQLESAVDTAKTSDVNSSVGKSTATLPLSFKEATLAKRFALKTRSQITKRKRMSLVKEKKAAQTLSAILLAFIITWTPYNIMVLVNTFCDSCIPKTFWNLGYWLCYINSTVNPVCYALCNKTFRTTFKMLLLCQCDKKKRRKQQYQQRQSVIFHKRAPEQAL
Sequence of m3 receptors (P08483 whole entry): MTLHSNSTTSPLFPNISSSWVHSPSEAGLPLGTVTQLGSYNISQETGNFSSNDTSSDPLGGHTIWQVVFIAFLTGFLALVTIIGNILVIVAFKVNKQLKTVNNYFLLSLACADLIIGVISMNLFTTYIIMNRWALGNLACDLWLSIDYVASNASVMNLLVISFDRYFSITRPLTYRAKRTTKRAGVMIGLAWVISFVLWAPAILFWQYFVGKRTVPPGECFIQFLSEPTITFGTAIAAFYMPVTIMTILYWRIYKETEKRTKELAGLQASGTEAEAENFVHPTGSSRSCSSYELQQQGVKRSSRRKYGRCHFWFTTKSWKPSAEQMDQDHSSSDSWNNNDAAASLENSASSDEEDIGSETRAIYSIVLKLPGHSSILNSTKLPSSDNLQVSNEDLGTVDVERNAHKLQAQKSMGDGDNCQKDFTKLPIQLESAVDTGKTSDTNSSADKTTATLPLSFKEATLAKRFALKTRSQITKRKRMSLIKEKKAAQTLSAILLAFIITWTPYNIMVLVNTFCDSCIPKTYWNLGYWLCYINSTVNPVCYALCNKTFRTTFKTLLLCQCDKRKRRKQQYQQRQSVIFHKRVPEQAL

As for `CCC1=NCC2(CN3CCC2CC3)O1` (racemic) [AF123, 2-Ethyl spiro(1,3 oxazoline 5,3')quinuclidine], the “decomposition in aqueous solution” value in data set [1] is reported as “same pattern of decomposition”. Further, the Ki in data set [2] (3H-QNB-Binding KH (c), Table 4) amounted to 3.9 µM; in data set [4] it was 1300 nM. The “% H” value in data set [2] (Table 4) and in [4] was 100% throughout. Also, the Mortality no. in [3] (50 mg/kg i.v.) is 0/5; in [3] (100 mg/kg i.v.), 5/5; in data set [3] (200 mg/kg i.v.) it was 5/5; in data set [3] (200 mg/kg p.os), 0/5; in [3] (400 mg/kg p.os), 5/5. Besides, the Mortality time in data set [3] (100 mg/kg i.v.) was 1 min; in data set [3] (200 mg/kg i.v.) it was “immed”; in [3] (200 mg/kg p.os), 3 min; in data set [3] (400 mg/kg p.os), 3 min. In addition, the “Convulsive seizure (Con)” value in data set [3] (100 mg/kg i.v., animals affected/treated) is recorded as 5/5; in data set [3] (setting [13]), 5/5. The “Tremors (Tre)” value was 4/5 in [3] (200 mg/kg p.os, animals affected/treated) and 5/5 in [3] (setting [13]). In addition, the “Respiratory distress (Res)” value in [3] (setting [13]) is listed as 5/5. For the same compound, the “RATIOS c:a” value in [4] (KH cerebellum (3H-QNB) : KH cortex (3H-PZ)) is recorded as 3.0.

Regarding `CC1OC2(CS1)CN1CCC2CC1` (stereo not drawn) [AF102B, cis-2-methylspiro(1,3-oxathiolane-5',3)quinuclidine, reference compound], the “PI (phosphoinositides hydrolysis)” value in data set [5] was “-”; in data set [9] (SK-N-SH m3, tested at 1mM), “-”; in data set [10] (CHO m1, tested at 1mM), “+”. The “% H1” value in data set [6] was found to be 100%. The “slow AHP (Ca++-dependent K+ conductance)” value in [7] (applied topically by microdrops) is recorded as “block the slow AHP”. Further, the depolarization entry in [7] (applied topically by microdrops (AF150: 100 µM)) is “not shown in the case of AF102B”. Also, the “%H (% of high affinity state)” value came to 26% in data set [8] (with Cu++ pretreatment (100 µM, 30 minutes)); 26±5% in data set [8] (with Cu++ pretreatment (100 µM, 30 minutes), listed as 4); 0% in data set [8] (without pretreatment). In addition, in [9], the “block of oxotremorine-M-induced phosphoinositide hydrolysis” value is “completely blocked”. Further, the inhibition at 1000 µM in data set [9] (SK-N-SH, read-out: inhibition of the oxotremorine-M signal) was determined as 34%. In data set [9] (even at 1 mM), the “stimulation of phosphoinositide hydrolysis” value was “failed to stimulate phosphoinositide hydrolysis”. Besides, the “PI, % of carbachol effect” value in data set [10] (CHO m1) is recorded as 20%. For the same compound, the “effective concentration which induces the effect” value is given as 30^b µM in data set [10] (CHO m1, PI hydrolysis, footnote b) and 0.1^b µM in data set [11] (PC12 m4, AC activity, footnote b). Further, the Ki in data set [2] (3H-QNB-Binding KH2 (c), Table 5) is 5.9 µM; in [2] (3H-QNB-Binding KH (c), Table 4) it was 6 µM; in data set [12] (+G (0.1 mM GppNHp), read-out: KH), 700 to 1000 nM; in [12] (+G (0.1 mM GppNHp), read-out: KL), 700 to 1000 nM; in data set [12] (-G (without GppNHp), read-out: KH), 700 to 1000 nM; in data set [12] (-G, read-out: KL), 700 to 1000 nM. In addition, the Ki in [4] was determined as 1000 nM. In addition, the “% H” value in data set [2] (Table 4) and in data set [4] was 100% throughout. The “% H2” value in [2] (Table 5) was 100%. For the same compound, the “AC, % of carbachol effect” value in [11] (PC12 m4) worked out at 40%. The “AC (adenylate cyclase activity)” value in data set [11] (PC12 m4, tested at 1mM) is on record as “+”.
